The values that follow come from patent US10253041B2, “7-phenylethylamino-4H-pyrimido[4,5-d][1,3]oxazin-2-one compounds and their use as mutant IDH1 inhibitors” (Eli Lilly and Company, priority 2015, dated 2019).

The subject of assay [1] is IDH1 mutant R132C in fibrosarcoma cell line HT1080. Kind of assay: HT1080 cell assay (intracellular 2HG and αKG). The assay is classed as cell-based. The settings on record: Homo sapiens, 1 hour + 18 hours incubation. The method, then:
(§1) To test the cellular inhibition of IDH1 mutant R132C, the fibrosarcoma cell line HT1080 (purchased from ATCC) is used. For testing cell-based inhibition of the R132H mutation, the U87MG glioma cell line (ATCC) was stably transfected with a DNA construct expressing the R132H mutant enzyme.
Fifteen thousand cells are plated in poly-D-lys coated 96 well plates (15,000 cells/well) 18-24 hours prior to treatment with compounds. Four hours prior to compound treatment, cells are glutamine-starved by removing normal media and replacing with glutamine-free media. Following starvation, cells are then treated with different concentrations of test compounds (20 μM to 1 nM) dissolved in glutamine free media containing DMSO at a final concentration of 0.2%. The initial compound incubation is for 1 hour at 37° C./5% CO2. After 1 hour, glutamine is added to a final 2 mM concentration and the treated cells are then incubated for a further 18 hours at 37° C./5% CO2. Following the 18 hour incubation, intracellular 2HG and αKG are analyzed in cell lysates. Lysates are prepared following removal of media and addition of buffer containing 25 mM Tris-HCl pH 7.5, 150 mM NaCl, 1 mM EDTA, 1 mM EGTA/1% Triton-X 100 to the cells. An aliquot of lysate is added to a mix of d6-αKG and d5-3HG as internal standards and the mixture is treated with O-benzylhydroxylamine in the presence of N-(3-dimethylaminopropyl)-N′-ethylcarbodiimide hydrochloride (EDC) and pyridine. Analyte derivatives are then extracted with EtOAc, dried, and then reconstituted with 50% MeOH in H2O. Samples prepared as described are injected into the HPLC to separate 2HG and αKG derivatives (and corresponding internal standards) using a reverse phase chromatography in a C18 column. Analysis of the samples is carried out using a 6460 triple quadrupole mass spectrometer (G6460A Agilent). The 2HG and αKG signals detected are transformed into analyte concentration using the ratio of αKG/d6-αKG and the ratio of 2HG/d5-3HG that is extrapolated within a calibration curve. Percent inhibition for each individual sample is obtained after normalizing calculated 2HG or aKG concentration to maximum and minimum references obtained in the presence and in the absence of glutamine during cell treatment with compounds. IC50 values are obtained from individual % inhibition using a sigmoidal dose-response 4-parameter equation. These calculations are carried out automatically using Activity Base (IDBS) or Screener (Genedata) data analysis programs.

A further assay addresses T1, IDH1/R132H (Homo sapiens, UniProt O75874, R132H).
T1 construct: His-tag (N); made in house; host or cells: E. coli
Description: Biochemical assay for IDH1 R132H mutant enzyme (2HG by RapidFire MS). To be noted: mean ± standard deviation of the mean; 90 minutes reaction. The procedure: (§2) IDH1-R132H, IDH1-R132C, IDH2-R172K and IDH2-R140Q mutant enzymes catalyze the conversion of αKG to 2HG. 2HG is analyzed using in-line solid phase extraction and mass spectrometry. This analysis is carried out in a RapidFire® instrument coupled to a 6460 triple quadrupole mass spectrometer (G6460A Agilent).
(§3) IDH1 mutant (R132H and R132C) and IDH2 mutant (R140Q and R172K) proteins containing N-terminal His-tag are expressed in E. coli and purified using nickel affinity chromatography. The enzyme assays are carried out in V-bottom 96 well polypropylene plates containing 100 mM Tris-HCl buffer, 1 mM DTT, 0.005% TRITON™ X-100, 120 mM NaCl. For IDH1 R132H, α-ketoglutarate, NADPH and MnCl2 are included at final concentrations of 300 μM, 2.5 μM and 300 μM respectively. For IDH1 R132C, α-ketoglutarate, NADPH and MnCl2 are included at final concentrations of 100 μM, 10 μM and 100 μM respectively. For IDH2 R172K, α-ketoglutarate, NADPH and MnCl2 are included at final concentrations of 150 μM, 10 μM and 150 μM respectively. For IDH2 R140Q, α-ketoglutarate, NADPH and MnCl2 are included at final concentrations of 3000 μM, 10 μM and 100 μM respectively. Final pH=7.0. Test compound dissolved in DMSO stock is diluted in the reaction mix at a final DMSO concentration of 4%. Compounds are tested in dose-response format. The assay is started by addition of enzyme. Enzymes are used at the following final concentrations: IDH1 R132H, 2 nM; IDH1 R132C, 0.5 nM; IDH2 R172K, 1.2 nM; IDH2 R140Q, 1.2 nM. After 90 minutes the reaction is quenched by adding ACN (50:50) containing 3-hydroxy-1,5-pentanedioic-2,2,3,4,4-d5 acid (5d5-3HG) as an internal standard for mass spectrometry analysis and quantitation of reaction product. 2-Hydroxyglutarate (2HG) in quenched samples is separated using strong anionic exchange column chromatography (Phenomenex Strata-X-A SecurityGuard) and analyzed by mass spectrometry in a 6460 triple quadrupole mass spectrometer (G6460A Agilent). The 2HG signal detected is transformed into an analyte concentration using a calibration curve generated using known 2HG concentrations. […] IC50 values are obtained from the individual % inhibition values at different compound concentrations using a 4-parameter equation. These calculations are carried out using Activity Base (IDBS) or Screener (Genedata) data analysis programs.

A further assay has as its target T2, IDH1/R132C (Homo sapiens, UniProt O75874, R132C).
T2 construct: His-tag (N); made in house; host or cells: E. coli
Kind of assay: Biochemical assay for IDH1 R132C mutant enzyme (2HG by RapidFire MS). To be noted: mean ± standard deviation of the mean; 90 minutes reaction. The procedure: as §2, §3

Assay [2] deals with IDH1/R132H in U87MG glioma cells. Kind of assay: U87MG/IDH1R132H cell assay (intracellular 2HG). The assay is classed as cell-based. To be noted: Homo sapiens, U-87 MG, 19 h, 1 hour + 18 hours incubation, read-out: U87MG (IDH1/R132H 2-hydroxyglutarate IC50). The procedure:
as §1
Cells are plated in poly-D-lys coated 96 well plates (12,000 cells/well) 18-24 hours previous to treatment with compounds. Four hours prior to compound treatment, cells are glutamine-starved by removing normal media and replacing with glutamine-free media. Following starvation, cells are then treated with different concentrations of test compounds (20 μM to 1 nM) dissolved in glutamine free media containing DMSO at a final concentration of 0.2%. The initial compound incubation is for 1 hour at 37° C./5% CO2. After 1 hour, glutamine is added to a final 2 mM concentration and the treated cells are then incubated for a further 18 hours at 37° C./5% CO2. Intracellular 2HG is analyzed in cell lysates obtained after media removal and treatment with lysis buffer (25 mM Tris-HCl pH 7.5, 150 mM NaCl, 1 mM EDTA, 1 mM EGTA/1% Triton-X 100). Cell lysates are conserved at −80° C. until processing. For analyte extraction, an aliquot of thawed lysate is transferred to a deep 96-well plate and treated with cold MeOH containing d5-3HG as an internal standard followed by chloroform and H2O (1:4:3:2). The upper phase is collected after separation and injected in HPLC to separate 2HG (and internal standard) using hydrophilic interaction (HILIC) chromatography coupled to MS/MS detection in a 6460 triple quadrupole mass spectrometer. Percent inhibition for each individual sample is obtained after normalizing calculated 2HG concentration to maximum and minimum references obtained in the presence and in the absence of glutamine during cell treatment with compounds. IC50 values are obtained from individual % inhibition using a sigmoidal dose-response 4-parameter equation. These calculations are carried out automatically using Activity Base (IDBS) or Screener (Genedata) data analysis programs.

The mark [3] stands for this setting: HT-1080, 19 h, intracellular 2HG, read-out: HT1080 (R132C, 2-hydroxyglutarate) IC50.
The mark [4] stands for this setting: HT-1080, intracellular αKG, read-out: HT1080 (R132C, αKG) IC50.

Structures can show the parent of a compound that is named as a salt. Where two headings read alike, the source gives them in different places. Some results are limits rather than exact numbers.

T2 sequence (O75874 whole entry R132C): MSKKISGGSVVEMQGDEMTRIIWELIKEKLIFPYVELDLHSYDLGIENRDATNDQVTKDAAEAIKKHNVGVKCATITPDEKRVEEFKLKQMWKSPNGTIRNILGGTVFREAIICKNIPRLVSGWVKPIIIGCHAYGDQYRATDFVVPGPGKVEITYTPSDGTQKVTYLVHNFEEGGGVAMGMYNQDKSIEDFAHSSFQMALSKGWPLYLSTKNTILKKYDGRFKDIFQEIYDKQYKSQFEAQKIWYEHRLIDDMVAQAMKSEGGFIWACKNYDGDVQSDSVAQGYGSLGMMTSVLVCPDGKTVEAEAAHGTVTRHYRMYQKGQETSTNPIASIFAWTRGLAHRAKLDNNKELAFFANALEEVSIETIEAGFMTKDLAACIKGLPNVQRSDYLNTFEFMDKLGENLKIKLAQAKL
T1 sequence (O75874 whole entry R132H): as the sequence (O75874 whole entry R132C) above, with C132H counted along it

`C=CC(=O)N1CCN(Cc2ccc([C@H](C)Nc3ncc4c(n3)N(CC)C(=O)OC4)cc2)CC1` [Example 23, 1-Ethyl-7-[[(1S)-1-[4-[(4-prop-2-enoylpiperazin-1-yl)methyl]phenyl]ethyl]amino]-4H-pyrimido[4,5-d][1,3]oxazin-2-one 4-hydroxybenzoic acid salt]: the IC50 in assay [1] (setting [3]) is 0.0321 ± 0.0136 µM; in assay [1] (setting [4]), greater than 20 µM; on IDH1/R132H, 0.188 ± 0.048 µM; against IDH1/R132C it was 0.234 ± 0.067 µM; in assay [2], 0.00903 ± 0.00075 µM.

`C=CC(=O)N1CCN(c2ccc([C@H](C)Nc3ncc4c(n3)N(CC)C(=O)OC4)cc2)CC1` [Example 18, 1-Ethyl-7-[[(1S)-1-[4-(4-prop-2-enoylpiperazin-1-yl)phenyl]ethyl]amino]-4H-pyrimido[4,5-d][1,3]oxazin-2-one]: the IC50 in assay [1] (setting [3]) is 0.38 ± 0.13 µM; in assay [1] (setting [4]), greater than 20 µM; on IDH1/R132H it was 0.211 µM; against IDH1/R132C it was 0.192 µM; in assay [2] it was 0.0707 µM.
